In patent US11352340B2, “Pyridine and pyridimine compounds as PI3K-gamma inhibitors” (Incyte Corporation, priority 2016, dated 2022):
Where a name gives a salt, the structure may show the parent alone.

Legend:
[1] = target: PI3Kδ (p110δ/p85α) Recombinant Human Protein (Homo sapiens (Human), UniProt O00329); assay: PI3Kδ Scintillation Proximity Assay; type: biochemical; settings: read-out: PI3K-delta SPA IC50
In short: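 Recombinant human p110δ/p85α (3.4 nM) with 20 μM PIP2 and 2 μM ATP plus [γ-33P]ATP, in 20 mM MOPS pH 6.7, 10 mM MgCl2, 5 mM DTT, 0.03% CHAPS, 2% DMSO; 120 min at room temperature. Product captured on WGA SPA beads, scintillation counted; IC50 from percent-of-control curves.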

[2] = test system: Phosphorylated Ribosomal Protein S6 (RPS6) in THP-1 cells; assay: THP-1 RPS6 ELISA Assay; type: cell-based, Human; settings: Homo sapiens, MCP-1 stimulated, phospho-RPS6 ELISA, read-out: THP p-RPS6 ELISA IC50
In short: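 Serum-starved THP-1 cells (2×10^5/well, RPMI) preincubated with compound 2 h at 37° C, then stimulated with 10 nM MCP-1 for 15 min. Lysates assayed by phospho-RPS6 ELISA, absorbance 450 nm (540 nm correction); IC50 from percent inhibition versus log concentration.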

[3] = target: PI3Kγ (p110γ) Recombinant Human Protein (Homo sapiens (Human), UniProt P48736); assay: PI3K-γ Scintillation Proximity Assay; type: biochemical; settings: read-out: PI3K-gamma SPA IC50
PI3Kγ (p110γ) Recombinant Human Protein, sequence (P48736 whole entry): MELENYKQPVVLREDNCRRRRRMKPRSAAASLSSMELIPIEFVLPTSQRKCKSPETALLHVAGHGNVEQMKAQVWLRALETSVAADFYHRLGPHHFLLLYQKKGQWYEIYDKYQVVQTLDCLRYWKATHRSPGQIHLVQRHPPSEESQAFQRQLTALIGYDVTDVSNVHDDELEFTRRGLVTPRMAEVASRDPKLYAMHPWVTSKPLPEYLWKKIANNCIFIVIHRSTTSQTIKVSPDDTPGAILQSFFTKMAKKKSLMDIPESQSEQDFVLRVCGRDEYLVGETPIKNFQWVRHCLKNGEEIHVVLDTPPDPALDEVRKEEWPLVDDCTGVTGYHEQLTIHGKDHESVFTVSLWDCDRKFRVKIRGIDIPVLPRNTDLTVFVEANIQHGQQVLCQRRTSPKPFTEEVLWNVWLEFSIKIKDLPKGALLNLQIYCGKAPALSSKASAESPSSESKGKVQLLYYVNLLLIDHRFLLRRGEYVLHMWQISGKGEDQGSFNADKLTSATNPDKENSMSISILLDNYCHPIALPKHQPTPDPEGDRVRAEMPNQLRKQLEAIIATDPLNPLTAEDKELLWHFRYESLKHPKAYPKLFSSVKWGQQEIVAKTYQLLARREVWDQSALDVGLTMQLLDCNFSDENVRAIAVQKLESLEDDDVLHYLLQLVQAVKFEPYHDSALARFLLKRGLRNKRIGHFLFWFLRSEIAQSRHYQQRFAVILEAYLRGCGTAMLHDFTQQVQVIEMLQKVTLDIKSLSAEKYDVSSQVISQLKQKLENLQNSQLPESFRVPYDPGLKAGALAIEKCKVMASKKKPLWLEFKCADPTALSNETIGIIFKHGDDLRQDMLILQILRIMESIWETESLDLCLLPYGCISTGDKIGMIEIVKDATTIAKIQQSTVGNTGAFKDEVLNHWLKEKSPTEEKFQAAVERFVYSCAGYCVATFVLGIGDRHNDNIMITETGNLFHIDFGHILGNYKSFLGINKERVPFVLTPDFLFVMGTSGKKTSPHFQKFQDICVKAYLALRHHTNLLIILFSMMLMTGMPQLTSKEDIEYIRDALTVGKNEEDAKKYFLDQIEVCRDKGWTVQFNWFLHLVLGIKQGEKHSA
In short: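 Recombinant human p110γ (13 nM) with 20 μM PIP2 and 2 μM ATP plus 0.5 μCi [γ-33P]ATP in 20 mM MOPS pH 6.7, 10 mM MgCl2, 5 mM DTT, 0.03% CHAPS, 2% DMSO, 120 min at room temperature. Product captured on WGA SPA beads and counted; IC50 fitted from % of solvent control versus log concentration.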

PI3Kδ (p110δ/p85α) Recombinant Human Protein, sequence (O00329 whole entry): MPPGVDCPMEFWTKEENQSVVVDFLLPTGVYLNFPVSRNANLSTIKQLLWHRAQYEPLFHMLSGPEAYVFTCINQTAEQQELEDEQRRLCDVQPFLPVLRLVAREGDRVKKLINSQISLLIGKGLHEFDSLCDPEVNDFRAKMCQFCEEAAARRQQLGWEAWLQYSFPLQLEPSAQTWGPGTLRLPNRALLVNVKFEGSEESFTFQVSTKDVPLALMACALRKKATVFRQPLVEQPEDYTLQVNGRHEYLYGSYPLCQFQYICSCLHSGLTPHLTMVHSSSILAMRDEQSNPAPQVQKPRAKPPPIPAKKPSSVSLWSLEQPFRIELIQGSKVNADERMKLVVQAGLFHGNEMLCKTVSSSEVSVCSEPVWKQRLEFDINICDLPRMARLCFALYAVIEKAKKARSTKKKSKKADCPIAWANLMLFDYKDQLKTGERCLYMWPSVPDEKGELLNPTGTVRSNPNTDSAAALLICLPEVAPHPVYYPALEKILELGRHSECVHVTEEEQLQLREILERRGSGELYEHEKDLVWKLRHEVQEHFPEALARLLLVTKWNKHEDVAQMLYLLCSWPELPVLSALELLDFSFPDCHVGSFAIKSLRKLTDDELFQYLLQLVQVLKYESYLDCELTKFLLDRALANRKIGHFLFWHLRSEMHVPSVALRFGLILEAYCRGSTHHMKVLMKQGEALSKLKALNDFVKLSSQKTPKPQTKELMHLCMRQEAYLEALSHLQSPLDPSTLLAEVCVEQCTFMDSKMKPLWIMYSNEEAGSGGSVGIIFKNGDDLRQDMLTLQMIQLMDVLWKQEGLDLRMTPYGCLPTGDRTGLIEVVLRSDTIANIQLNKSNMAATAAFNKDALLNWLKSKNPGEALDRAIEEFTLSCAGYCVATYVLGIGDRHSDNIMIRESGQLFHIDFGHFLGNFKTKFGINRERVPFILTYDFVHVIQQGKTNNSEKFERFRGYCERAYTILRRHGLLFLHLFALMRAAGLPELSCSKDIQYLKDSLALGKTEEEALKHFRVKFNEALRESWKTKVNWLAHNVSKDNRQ
PI3Kδ (p110δ/p85α) Recombinant Human Protein, sequence (P27986 whole entry partner): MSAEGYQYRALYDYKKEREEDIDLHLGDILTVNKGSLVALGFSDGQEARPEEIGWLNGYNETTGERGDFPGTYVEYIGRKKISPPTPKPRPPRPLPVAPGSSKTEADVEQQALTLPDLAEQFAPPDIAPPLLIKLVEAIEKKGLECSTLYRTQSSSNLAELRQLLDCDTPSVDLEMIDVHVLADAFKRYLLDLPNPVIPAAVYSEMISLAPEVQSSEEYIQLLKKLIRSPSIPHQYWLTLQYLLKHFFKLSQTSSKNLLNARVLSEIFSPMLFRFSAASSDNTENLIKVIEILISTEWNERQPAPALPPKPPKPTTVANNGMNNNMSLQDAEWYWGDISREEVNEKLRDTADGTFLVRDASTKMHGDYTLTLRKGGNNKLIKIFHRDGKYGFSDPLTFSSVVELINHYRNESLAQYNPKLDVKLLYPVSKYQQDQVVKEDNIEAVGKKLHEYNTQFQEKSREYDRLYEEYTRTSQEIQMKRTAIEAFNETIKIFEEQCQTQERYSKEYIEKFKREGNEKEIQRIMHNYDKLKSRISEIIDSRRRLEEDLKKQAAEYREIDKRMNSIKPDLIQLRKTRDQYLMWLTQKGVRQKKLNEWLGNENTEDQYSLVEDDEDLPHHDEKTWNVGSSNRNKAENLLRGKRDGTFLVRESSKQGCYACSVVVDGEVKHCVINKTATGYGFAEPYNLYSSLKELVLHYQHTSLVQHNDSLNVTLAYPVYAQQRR

Structure (SMILES)	IC50 [1] [nM]	IC50 [2] [nM]	IC50 [3] [nM]
COc1cncc(-c2ccnc(-c3ncc(-c4ccc(S(=O)(=O)N(C)C)cc4)[nH]3)c2)c1 [Example 83, 4-(2-(5-Methoxy-3,4′-bipyridin-2′-yl)-1H-imidazol-5-yl)-N,N-dimethylbenzenesulfonamide trifluoroacetate salt]	≤ 50	> 5000	≤ 50
COc1cncc(-c2ccnc(-c3ncc(C4CC4)[nH]3)c2)c1 [Example 86, 2′-(5-Cyclopropyl-1H-imidazol-2-yl)-5-methoxy-3,4′-bipyridine]	≤ 500	300 to 1000	≤ 50
COc1cncc(-c2ccnc(-c3nc4ccccc4[nH]3)n2)c1 [Example 94, 2-[4-(5-Methoxypyridin-3-yl)pyrimidin-2-yl]-1H-benzimidazole Trifluoroacetate Salt]	> 500	1000 to 5000	≤ 500
c1cc(-c2cncc(N3CCOCC3)c2)cc(-c2ncc(C3CC3)[nH]2)n1 [Example 102, 4-(2′-(5-Cyclopropyl-1H-imidazol-2-yl)-3,4′-bipyridin-5-yl)morpholine trifluoroacetate salt]	≤ 50	300 to 1000	≤ 100
c1cc(-c2cncc(N3CCOCC3)c2)cc(-c2ncc(C3CCC3)[nH]2)n1 [Example 103, 4-(2′-(5-Cyclobutyl-1H-imidazol-2-yl)-3,4′-bipyridin-5-yl)morpholine trifluoroacetate salt]	≤ 50	1000 to 5000	≤ 100
CS(=O)(=O)c1cncc(-c2ccnc(-c3ncc(C4CCCCC4)[nH]3)c2)c1 [Example 106, 2′-(5-Cyclohexyl-1H-imidazol-2-yl)-5-(methylsulfonyl)-3,4′-bipyridine Trifluoroacetate Salt]	≤ 50	≤ 300	≤ 50
Cc1cnc(-c2cc(-c3cncc(S(C)(=O)=O)c3)ccn2)[nH]1 [Example 107, 2′-(5-Methyl-1H-imidazol-2-yl)-5-(methylsulfonyl)-3,4′-bipyridine trifluoroacetate salt]	≤ 100	≤ 300	≤ 100
CCc1cnc(-c2cc(-c3cncc(S(C)(=O)=O)c3)ccn2)[nH]1 [Example 110, 2′-(5-Ethyl-1H-imidazol-2-yl)-5-(methylsulfonyl)-3,4′-bipyridine trifluoroacetate salt]	≤ 50	300 to 1000	≤ 50
CS(=O)(=O)c1cncc(-c2ccnc(-c3ncc(C4CCCC4)[nH]3)c2)c1 [Example 114, 2′-(5-Cyclopentyl-1H-imidazol-2-yl)-5-(methylsulfonyl)-3,4′-bipyridine trifluoroacetate salt]	≤ 50	≤ 300	≤ 50
Cc1nc(-c2cc(-c3cncc(S(C)(=O)=O)c3)ccn2)[nH]c1C1CC1 [Example 116, 2′-(5-Cyclopropyl-4-methyl-1H-imidazol-2-yl)-5-(methylsulfonyl)-3,4′-bipyridine trifluoroacetate salt]	≤ 50	≤ 300	≤ 50
CCc1[nH]c(-c2cc(-c3cncc(S(C)(=O)=O)c3)ccn2)nc1C [Example 117, 2′-(5-Ethyl-4-methyl-1H-imidazol-2-yl)-5-(methylsulfonyl)-3,4′-bipyridine]	≤ 50	≤ 300	≤ 50
Cc1[nH]c(-c2cc(-c3cncc(S(C)(=O)=O)c3)ccn2)nc1C(=O)O [Example 119, 5-Methyl-2-(5-(methylsulfonyl)-3,4′-bipyridin-2′-yl)-1H-imidazole-4-carboxylic acid trifluoroacetate salt]	> 500	> 5000	≤ 50
CS(=O)(=O)c1cncc(-c2ccnc(-c3nc(C4CCCCC4)c(N)[nH]3)c2)c1 [Example 120, 4-Cyclohexyl-2-[5-(methylsulfonyl)-3,4′-bipyridin-2′-yl]-1H-imidazol-5-amine Trifluoroacetate Salt]	≤ 50	> 5000	≤ 100

Next, values leading:

IC50 [1] [nM]	IC50 [2] [nM]	IC50 [3] [nM]	Structure (SMILES)
≤ 50	> 5000	≤ 50	COc1cncc(-c2ccnc(-c3nc(C)c(-c4ccccc4)[nH]3)c2)c1 [Example 82, 5-Methoxy-2′-(4-methyl-5-phenyl-1H-imidazol-2-yl)-3,4′-bipyridine trifluoroacetate salt]
≤ 500	1000 to 5000	≤ 100	COc1cncc(-c2ccnc(-c3ncc(C(C)C)[nH]3)c2)c1 [Example 84, 2′-(5-Isopropyl-1H-imidazol-2-yl)-5-methoxy-3,4′-bipyridine trifluoroacetate salt]
> 500	> 5000	≤ 500	CCc1cnc(-c2cc(-c3cncc(OC)c3)ccn2)[nH]1 [Example 85, 2′-(5-Ethyl-1H-imidazol-2-yl)-5-methoxy-3,4′-bipyridine trifluoroacetate salt]
≤ 50	> 5000	≤ 100	COc1cncc(-c2ccnc(-c3ncc(-c4ccccn4)[nH]3)c2)c1 [Example 87, 5-Methoxy-2′-(5-(pyridin-2-yl)-1H-imidazol-2-yl)-3,4′-bipyridine trifluoroacetate salt]
≤ 50	> 5000	≤ 500	COc1cncc(-c2ccnc(-c3ncc(C(C)(C)C)[nH]3)c2)c1 [Example 88, 2′-(5-tert-Butyl-1H-imidazol-2-yl)-5-methoxy-3,4′-bipyridine trifluoroacetate salt]
≤ 500	300 to 1000	≤ 50	Cc1cnc(-c2cc(-c3cncc(N4CCOCC4)c3)ccn2)[nH]1 [Example 97, 2′-(5-Methyl-1H-imidazol-2-yl)-5-morpholin-4-yl-3,4′-bipyridine]
≤ 100	≤ 300	≤ 100	Cc1nc(-c2cc(-c3cncc(N4CCOCC4)c3)ccn2)[nH]c1C [Example 98, 4-(2′-(4,5-Dimethyl-1H-imidazol-2-yl)-3,4′-bipyridin-5-yl)morpholine trifluoroacetate salt]
≤ 500	> 5000	≤ 50	FC(F)(F)c1cnc(-c2cc(-c3cncc(N4CCOCC4)c3)ccn2)[nH]1 [Example 99, 4-(2′-(5-(Trifluoromethyl)-1H-imidazol-2-yl)-3,4′-bipyridin-5-yl)morpholine trifluoroacetate salt]
≤ 50	≤ 300	≤ 50	Cc1nc(-c2cc(-c3cncc(N4CCOCC4)c3)ccn2)[nH]c1C1CC1 [Example 104, 4-(2′-(5-Cyclopropyl-4-methyl-1H-imidazol-2-yl)-3,4′-bipyridin-5-yl)morpholine trifluoroacetate salt]
≤ 100	≤ 300	≤ 100	CCc1[nH]c(-c2cc(-c3cncc(N4CCOCC4)c3)ccn2)nc1C [Example 105, 4-(2′-(5-Ethyl-4-methyl-1H-imidazol-2-yl)-3,4′-bipyridin-5-yl)morpholine]
≤ 50	≤ 300	≤ 50	Cc1nc(-c2cc(-c3cncc(S(C)(=O)=O)c3)ccn2)[nH]c1C [Example 108, 2′-(4,5-Dimethyl-1H-imidazol-2-yl)-5-(methylsulfonyl)-3,4′-bipyridine trifluoroacetate salt]
≤ 50	300 to 1000	≤ 50	CS(=O)(=O)c1cncc(-c2ccnc(-c3ncc(C(F)(F)F)[nH]3)c2)c1 [Example 109, 5-(Methylsulfonyl)-2′-(5-(trifluoromethyl)-1H-imidazol-2-yl)-3,4′-bipyridine trifluoroacetate salt]
≤ 50	300 to 1000	≤ 50	CC(C)c1cnc(-c2cc(-c3cncc(S(C)(=O)=O)c3)ccn2)[nH]1 [Example 111, 2′-(5-Isopropyl-1H-imidazol-2-yl)-5-(methylsulfonyl)-3,4′-bipyridine trifluoroacetate salt]
≤ 50	300 to 1000	≤ 50	CS(=O)(=O)c1cncc(-c2ccnc(-c3ncc(C4CC4)[nH]3)c2)c1 [Example 112, 2′-(5-Cyclopropyl-1H-imidazol-2-yl)-5-(methylsulfonyl)-3,4′-bipyridine trifluoroacetate salt]
≤ 50	≤ 300	≤ 50	CS(=O)(=O)c1cncc(-c2ccnc(-c3ncc(C4CCC4)[nH]3)c2)c1 [Example 113, 2′-(5-Cyclobutyl-1H-imidazol-2-yl)-5-(methylsulfonyl)-3,4′-bipyridine trifluoroacetate salt]
≤ 50	≤ 300	≤ 50	CS(=O)(=O)c1cncc(-c2ccnc(-c3ncc(Cc4ccccc4)[nH]3)c2)c1 [Example 115, 2′-(5-Benzyl-1H-imidazol-2-yl)-5-(methylsulfonyl)-3,4′-bipyridine trifluoroacetate salt]
≤ 50	300 to 1000	≤ 50	CS(=O)(=O)c1cncc(-c2ccnc(-c3ncc(-c4ccccn4)[nH]3)c2)c1 [Example 118, 5-(Methylsulfonyl)-2′-(5-(pyridin-2-yl)-1H-imidazol-2-yl)-3,4′-bipyridine]
